Measured values taken from US4536578A, “1-[3-(6-Fluoro-1,2-benzisoxazol-3-yl)propyl]-4-(substituted)piperazines” (Hoechst-Roussel Pharmaceuticals Inc., priority 1982, dated 1985).
Counter-ions that a name gives are not always drawn. Like-named read-outs stand apart in the source and are kept apart here.

Tests used:
[1] = tested on: apomorphine-induced climbing; test: climbing mice assay (apomorphine-induced climbing); assay type: in vivo; conditions: intraperitoneal 30 min before apomorphine 1.5 mg/kg s.c.
Protocol: The subject CK-1 male mice (23-27 grams) are group-housed under standard laboratory conditions. The mice are individually placed in wire mesh stick cages (4"×4" by 10") and are allowed one hour for adaptation and exploration of the new environment.
For evaluation of climbing, 3 readings are taken at 10, 20 and 30 minutes after apomorphine administration according to the following scale:
Mice consistently climbing before the injection of apormorphine will be discarded.
With full-developed apomorphine climbing, the animals are hanging onto the cage walls, rather motionless, over longer periods of time. By contrast, climbs due to mere motor stimulation usually only last a few seconds.
The climbing scores are individually totaled (maximal score: 6 per mouse over 3 readings) and the total score of the control group (vehicle intraperitoneally--apomorphine subcutaneously) is set to 100%.

[2] = tested on: conditioned avoidance; test: Sidman Avoidance Paradigm in squirrel monkeys; assay type: in vivo, squirrel monkeys (Saimiri sciureus); conditions: Primates
Source text: The subjects are male squirrel monkeys (Saimiri sciureus). They are housed in individual home cages in the animal quarters for at least six weeks prior to training. When they are not in the test chambers, the subjects are maintained in their home cages with water available ad libitum and food available twice daily.
The apparatus consists of test cages (BRS/LVE) with a single lever and house-light. This is enclosed in a sound-attenuating chamber (BRS/LVE) with fan and the chambers are in an isolated room equipped with a speaker emitting a white-noise auditory background. The test cages have a grid floor of steel bars which are attached to a scrambled shock source (Coulbourn Instruments). The house-lights, shockers and response levers are controlled by BRS/LVE electromechanical timer and controls. The records of responses and shocks are recorded on Coulbourn print-out counters and Gerbrands cumulative recorders.
The monkeys are trained to avoid an unsignaled shock by repetitive lever-pressing responses. A shock (1.0 mA for 0.5 seconds) is delivered to the grid floor every 20 seconds if no responses are made (shock-shock interval of 20 seconds: SS-20"). A lever-press (response) will delay the oncoming shock for 20 seconds (Response-Shock interval of 20 seconds: RS-20").
Every 15 minutes the total number of shocks received and the total number of responses made are accumulated and constitute the basic data. The animals are trained until they maintain a stable response-rate and are receiving no more than 50 shocks per 4 hour test session. After reaching these criteria of performance, experimental compounds are administered and their effects on the performance of this learned avoidance behavior are evaluated.
The drug's effect on performance of each animal is compared to the performance data generated in the previous non-drug session. Each animal thereby serves as its own control. The basic measures of performance during a specific time interval, responses and shocks, are used for evaluation. Responses are reported both as totals and as percent of control responses. Shocks are reported as totals and as shock-avoided (SHA) as percent of control. This latter measure is computed by subtracting the number of shocks received from the total number of possible shocks if no responses are made.
However, an ED50 may be estimated during a representative time of peak activity.

[3] = tested on: extrapyramidal symptomatology; conditions: monkey, in vivo, po
Protocol: Adult male squirrel monkeys (Saimiri sciurens) are housed in individual home cages and fed twice daily with water available "ad libitum" when they are not in the test chambers.
On the test day, drugs are administered by oral intubation immediately prior to testing in volumes of 1.0 cc/kg of body weight. The compounds are dissolved in distilled water or suspended with the addition of one drop of Tween-80 per 10 cc of solution.
After dosing, the monkeys are placed in observation chambers in an isolated room. Two experienced investigators observe the monkeys for dyskinetic symptomatology at 2, 4 and 6 hours postdose. They score the monkeys for the following specific dyskinetic symptomatology:
Circling--when the monkey rapidly circles the cage floor
"Duck walk"--when the monkey walks in a seated position with arms curled and held tightly to his side
Limb extension--an abnormal, prolonged extension of one or more limbs, similar to but of longer duration than a stretching motion
Pushing--the monkey will push against the cage wall with his head or body, frequently at the end of a circling episode
Writhing--slow, writhing movements of the whole body frequently in conjunction with a pushing episode
Oral dyskinesias--chewing, gnawing and abnormal tongue protrusions
The following scoring index is used in order to quantify the severity of symptoms:

[4] = tested on: phenyl-para-quinone induced writhing; test: phenyl-para-quinone writhing assay in mice (analgesia); assay type: in vivo; conditions: Mus musculus, sc, read-out: Analgesic Activity ED50 (dose at which 50% of the phenyl-para-quinone induced writhing is inhibited)
Source text: Exptl. Biol. Med., 95, 729 (1957)]. Presented in Table I is the analgesic effect of some of the compounds of the invention, expressed as the subcutaneous dose at which 50% of the phenyl-para-quinone induced writhing is inhibited in the animals, i.e., the ED50.

[5] = tested on: spontaneous hypertensive rat; test: antihypertensive activity in the spontaneous hypertensive rat, indirect tail cuff method; assay type: in vivo; conditions: 50 mg/kg of body wt, intraperitoneal, 3 days, measured on third day, group of 4 rats
Protocol: According to this procedure, the test compound is administered intraperitoneally to a group of 4 rats for 3 days. The decrease in blood pressure is measured on the third day of administration.

[6] = squirrel monkeys, oral intubation immediately prior to testing, avoidance response, read-out: Antipsychotic Activity, Avoidance Response ED50
[7] = squirrel monkeys, oral intubation immediately prior to testing, escape response, read-out: Antipsychotic Activity, Escape Response ED50

O=C(CCCN1CCC(O)(c2ccc(Cl)cc2)CC1)c1ccc(F)cc1 [haloperidol]
Antipsychotic Activity (% decrease in climbing score) ([1]; dose 0.11 mg/kg of body wt): 50%
ED50 ([2]; po, read-out: Antipsychotic Activity, Avoidance Response ED50): 1.21 mg/kg
ED50 ([2]; po, read-out: Antipsychotic Activity, Escape Response ED50): 1.27 mg/kg
ED50 ([2]; po, read-out: ED50 value in the Sidman Avoidance Paradigm in squirrel monkeys (footnote * to Table V)): 1.3 mg/kg
% Monkeys showing extrapyramidal symptoms ([3]; 0.625 mg/kg): 33%
% Monkeys showing extrapyramidal symptoms ([3]; 1.3 mg/kg): 100%

Fc1ccc2c(CCCN3CCN(c4ccccc4)CC3)noc2c1.O=C(O)C(=O)O [Example 2, 1-[3-(6-Fluoro-1,2-benzisoxazol-3-yl)propyl]-4-phenylpiperazine oxalate]
Antipsychotic Activity (% decrease in climbing score) ([1]; dose 10 mg/kg of body wt): 31%
ED50 ([4]; mice, subcutaneous): 1.8 mg/kg
Blood Pressure Decrease (mean arterial blood pressure) [5]: 38 mm/mercury

Cl.Fc1ccc2c(CCCN3CCN(c4cccc(C(F)(F)F)c4)CC3)noc2c1 [Example 5, 1-[3-(6-Fluoro-1,2-benzisoxazol-3-yl)propyl]-4-(3-trifluoromethylphenyl)piperazine hydrochloride]
Blood Pressure Decrease (mean arterial blood pressure) [5]: 66 mm/mercury

Fc1ccc(N2CCN(CCCc3noc4cc(F)ccc34)CC2)cc1.O=C(O)C(=O)O [Example 3, 1-[3-(6-Fluoro-1,2-benzisoxazol-3-yl)propyl]-4-(4-fluorophenyl)piperazine oxalate]
Blood Pressure Decrease (mean arterial blood pressure) [5]: 33 mm/mercury

Cl.Cl.Fc1ccc2c(CCCN3CCN(c4ccccn4)CC3)noc2c1 [Example 10, 1-[3-(6-Fluoro-1,2-benzisoxazol-3-yl)propyl]-4-(2-pyridyl)piperazine dihydrochloride]
Antipsychotic Activity (% decrease in climbing score) ([1]; dose 10 mg/kg of body wt): 31%
ED50 ([4]; mice, subcutaneous): 0.8 mg/kg
Blood Pressure Decrease (mean arterial blood pressure) [5]: 66 mm/mercury

COc1ccccc1N1CCN(CCCc2noc3cc(F)ccc23)CC1 [Example 1, 1-[3-(6-Fluoro-1,2-benzisoxazol-3-yl)propyl]-4-(2-methoxyphenyl)piperazine dihydrochloride]
Antipsychotic Activity (% decrease in climbing score) ([1]; dose 4.1 mg/kg of body wt): 50%
ED50 ([4]; mice, subcutaneous): 5.2 mg/kg
ED50 [2, 6]: 2.9 mg/kg
ED50 [2, 7]: 4.8 mg/kg
ED50 ([2]; squirrel monkeys, oral, printed as dose with * in Table V, read-out: ED50 value in the Sidman Avoidance Paradigm in squirrel monkeys (footnote * to Table V)): 3.5 mg/kg
% Monkeys showing extrapyramidal symptoms ([3]; 3.5 mg/kg): 0%
% Monkeys showing extrapyramidal symptoms ([3]; 5 mg/kg): 0%
% Monkeys showing extrapyramidal symptoms ([3]; 10 mg/kg): 66%

CCC(=O)O[C@](Cc1ccccc1)(c1ccccc1)[C@H](C)CN(C)C [propoxyphene, reference compound]
ED50 [4]: 3.9 mg/kg

CSc1ccc2c(c1)N(CCC1CCCCN1C)c1ccccc1S2 (centres unmarked) [thioridazine]
Antipsychotic Activity (% decrease in climbing score) ([1]; dose 3.5 mg/kg of body wt): 50%
ED50 [2, 6]: 2.6 mg/kg
ED50 [2, 7]: 3.5 mg/kg
% Monkeys showing extrapyramidal symptoms ([3]; 3.5 mg/kg): 100%
% Monkeys showing extrapyramidal symptoms ([3]; 7 mg/kg): 100%

CC(C)=CCN1CCC2(C)c3cc(O)ccc3CC1C2C (centres unmarked) [pentazocine, reference compound]
ED50 [4]: 1.3 mg/kg

N=C(N)NCCN1CCCCCCC1 [guanethidine, reference compound]
Blood Pressure Decrease (mean arterial blood pressure) [5]: 20 mm/mercury

Cc1ccccc1N1CCN(CCCc2noc3cc(F)ccc23)CC1 [Example 6, 1-[3-(6-Fluoro-1,2-benzisoxazol-3-yl)propyl]-4-(2-methylphenylpiperazine oxalate]
Blood Pressure Decrease (mean arterial blood pressure) [5]: 33 mm/mercury

Cl.Fc1ccc2c(CCCN3CCN(c4ccccc4Cl)CC3)noc2c1 [Example 4, 4-(2-Chlorophenyl)-1-[3-(6-fluoro-1,2-benzisoxazol-3-yl)propyl]piperazine hydrochloride]
Blood Pressure Decrease (mean arterial blood pressure) [5]: 55 mm/mercury
